Patent publication US8927717B1, “Thiochromeno[2,3-c]quinolin-12-one derivatives, preparation method and application thereof” (National Defense Medical Center, priority 2014, dated 2015)

How the values were obtained:
[1] = biological target: T1, TOP I (Topoisomerase I) (Homo sapiens, UniProt P11387); assay: TOP I mediated supercoiled DNA relaxation assay; format: biochemical; conditions: primary assay at 25 and/or 50 μM
T1 construct: purchased TopoGEN TG2005H
T1 sequence (P11387 1-765): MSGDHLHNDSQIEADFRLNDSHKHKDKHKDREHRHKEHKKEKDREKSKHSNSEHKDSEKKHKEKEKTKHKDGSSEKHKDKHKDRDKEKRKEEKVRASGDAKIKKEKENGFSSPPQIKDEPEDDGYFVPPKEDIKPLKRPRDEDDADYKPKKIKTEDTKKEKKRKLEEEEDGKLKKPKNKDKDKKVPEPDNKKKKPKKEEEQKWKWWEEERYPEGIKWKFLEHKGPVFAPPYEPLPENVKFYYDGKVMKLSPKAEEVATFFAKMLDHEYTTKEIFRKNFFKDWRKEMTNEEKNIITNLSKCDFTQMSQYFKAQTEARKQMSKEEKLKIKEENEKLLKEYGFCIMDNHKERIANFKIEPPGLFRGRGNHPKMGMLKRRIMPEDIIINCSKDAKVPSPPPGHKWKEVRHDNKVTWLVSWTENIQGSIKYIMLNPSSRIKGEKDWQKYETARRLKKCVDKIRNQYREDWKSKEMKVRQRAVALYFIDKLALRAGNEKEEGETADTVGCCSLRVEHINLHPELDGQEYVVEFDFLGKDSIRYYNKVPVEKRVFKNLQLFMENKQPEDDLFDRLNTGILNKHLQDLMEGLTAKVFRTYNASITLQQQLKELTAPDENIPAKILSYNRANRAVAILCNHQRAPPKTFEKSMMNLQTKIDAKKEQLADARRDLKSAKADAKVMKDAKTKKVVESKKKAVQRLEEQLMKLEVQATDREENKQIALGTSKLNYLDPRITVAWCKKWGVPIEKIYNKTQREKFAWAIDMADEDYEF
Procedure: According to the cell cytotoxicity, compounds 5, 7, 8, 16, 19, N2, N7, N8, N9, N14-N19, and N25 were also selected for primary TOP I and II activities assays at 25 and/or 50 μM (FIG. 2-4).

[2] = system: RPMI-8226; format: cell-based; conditions: RPMI-8226; for Growth percent: 10^−5 molar
[3] = system: HOP-92; format: cell-based; conditions: HOP-92
[4] = system: NCI-H226; format: cell-based; conditions: NCI-H226; for Growth percent: 10^−5 molar
[5] = system: HCC-2998; format: cell-based; conditions: HCC-2998; for Growth percent: 10^−5 molar
[6] = system: SF-268; format: cell-based; conditions: SF-268; for Growth percent: 10^−5 molar
[7] = system: SF-295; format: cell-based; conditions: SF-295; for Growth percent: 10^−5 molar
[8] = system: SF-539; format: cell-based; conditions: SF-539; for Growth percent: 10^−5 molar
[9] = system: U251; format: cell-based; conditions: U251
[10] = system: MALME-3M; format: cell-based; conditions: MALME-3M; for Growth percent: 10^−5 molar
[11] = system: SK-MEL-2; format: cell-based; conditions: SK-Mel-2
[12] = system: SK-MEL-28; format: cell-based; conditions: SK-MEL-28; for Growth percent: 10^−5 molar
[13] = system: UACC-257; format: cell-based; conditions: UACC-257; for GI50 / CC50: Homo sapiens; for GI50 / CC50 / TGI: five dose; for CC50: read-out: LC50 (the source's name); for Growth percent: 10^−5 molar
[14] = system: IGROV1; format: cell-based; conditions: IGROV1; for Growth percent: 10^−5 molar
[15] = system: OVCAR-3; format: cell-based; conditions: OVCAR-3
[16] = system: OVCAR-4; format: cell-based; conditions: OVCAR-4; for GI50: Homo sapiens; for GI50 / TGI: five dose; for Growth percent: 10^−5 molar
[17] = system: 786-0; format: cell-based; conditions: 786-0; for Growth percent: 10^−5 molar
[18] = system: A498; format: cell-based; conditions: A498; for Growth percent: 10^−5 molar; for TGI / GI50 / CC50: five dose; for GI50 / CC50: Homo sapiens; for CC50: read-out: LC50 (the source's name)
[19] = system: CAKI-1; format: cell-based; conditions: CAKI-1; for TGI / GI50 / CC50: five dose; for GI50 / CC50: Homo sapiens; for CC50: read-out: LC50 (the source's name)
[20] = system: HS 578T; format: cell-based; conditions: HS 578T; for Growth percent: 10^−5 molar; for TGI / GI50 / CC50: five dose; for GI50 / CC50: Homo sapiens; for CC50: read-out: LC50 (the source's name)
[21] = system: MDA-MB-486; format: cell-based; conditions: MDA-MB-486; for GI50 / CC50: 60 cell; for GI50 / CC50 / TGI: five dose; for CC50: read-out: LC50 (the source's name); for Growth percent: 10^−5 molar
[22] = biological target: T1, TOP I (Topoisomerase I); assay: TOP I mediated supercoiled DNA relaxation assay; format: biochemical; conditions: five different concentrations; TopoGEN TG2005H, TG-2000H-1
[23] = biological target: T2, TOP II (Topoisomerase II) (Homo sapiens, UniProt P11388); assay: TOP II-catalyzed relaxation of plasmid DNA assay; format: biochemical
T2 construct: purchased TopoGEN TG-2000H-1
Procedure: We also performed TOP II-catalyzed relaxation of plasmid DNA assays (FIG. 5-7) to evaluate if compounds could inhibit TOP II. […] The IC50 value of compounds 7, N7, N8, N14, N15, N18, and N19 were about 10, 10, 1, 10, 5, 1, and 1 μM, respectively (detect by TopoGEN TG2005H, TG-2000H-1).

[24] = Homo sapiens, five dose, read-out: LC50 (the source's name)
[25] = Homo sapiens, IGROV-1, five dose

T2 sequence (P11388 whole entry): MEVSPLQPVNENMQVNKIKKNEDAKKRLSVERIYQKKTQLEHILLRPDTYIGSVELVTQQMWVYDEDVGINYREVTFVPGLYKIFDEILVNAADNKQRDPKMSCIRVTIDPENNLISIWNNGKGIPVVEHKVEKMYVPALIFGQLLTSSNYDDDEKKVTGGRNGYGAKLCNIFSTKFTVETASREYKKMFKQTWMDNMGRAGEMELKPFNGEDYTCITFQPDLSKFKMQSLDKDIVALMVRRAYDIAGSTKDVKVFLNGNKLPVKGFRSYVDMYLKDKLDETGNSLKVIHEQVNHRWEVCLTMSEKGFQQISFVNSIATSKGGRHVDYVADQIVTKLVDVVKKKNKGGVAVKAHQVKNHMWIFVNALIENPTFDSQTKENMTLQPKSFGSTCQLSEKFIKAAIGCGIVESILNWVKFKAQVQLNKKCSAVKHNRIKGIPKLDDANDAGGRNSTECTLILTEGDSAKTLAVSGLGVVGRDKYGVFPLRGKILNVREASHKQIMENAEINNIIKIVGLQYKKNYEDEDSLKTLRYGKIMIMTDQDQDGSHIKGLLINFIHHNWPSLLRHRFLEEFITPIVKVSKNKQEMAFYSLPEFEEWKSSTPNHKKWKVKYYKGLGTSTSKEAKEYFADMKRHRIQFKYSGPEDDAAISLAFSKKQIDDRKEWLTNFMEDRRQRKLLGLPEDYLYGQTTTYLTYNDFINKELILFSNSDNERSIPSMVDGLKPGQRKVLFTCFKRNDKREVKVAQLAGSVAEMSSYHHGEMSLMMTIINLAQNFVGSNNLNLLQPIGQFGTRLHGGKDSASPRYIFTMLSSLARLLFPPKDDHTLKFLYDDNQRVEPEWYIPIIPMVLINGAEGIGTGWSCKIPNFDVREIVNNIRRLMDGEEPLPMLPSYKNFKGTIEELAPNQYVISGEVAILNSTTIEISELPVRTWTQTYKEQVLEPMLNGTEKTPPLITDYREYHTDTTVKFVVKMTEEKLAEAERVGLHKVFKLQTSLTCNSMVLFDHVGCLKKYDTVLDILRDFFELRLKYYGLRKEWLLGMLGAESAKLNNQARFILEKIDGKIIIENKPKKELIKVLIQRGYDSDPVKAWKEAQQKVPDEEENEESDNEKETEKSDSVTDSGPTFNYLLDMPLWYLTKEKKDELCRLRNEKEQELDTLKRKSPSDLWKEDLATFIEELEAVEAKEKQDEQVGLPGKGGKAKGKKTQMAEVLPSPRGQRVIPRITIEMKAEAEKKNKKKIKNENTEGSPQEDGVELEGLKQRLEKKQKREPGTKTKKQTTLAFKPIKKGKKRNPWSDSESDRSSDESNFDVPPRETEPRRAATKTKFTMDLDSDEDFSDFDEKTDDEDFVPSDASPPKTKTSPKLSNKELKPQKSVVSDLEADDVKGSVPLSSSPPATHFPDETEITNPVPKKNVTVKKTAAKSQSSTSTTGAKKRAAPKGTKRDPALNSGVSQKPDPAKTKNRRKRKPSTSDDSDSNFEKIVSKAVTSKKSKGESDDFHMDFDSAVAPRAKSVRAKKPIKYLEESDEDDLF

`O=c1c2cc(Cl)ccc2sc2c(NCc3ccccc3)nc3ccccc3c12` [Compound N25, 6-(Benzylamino)-10-chloro-12H-thiochromeno[2,3-c]quinolin-12-one] was tested, and the “inhibitory effect in TOP I activity assay compared with CPT” value [1] was “more potent inhibitory effects than CPT”, the GI50 ([2]; Homo sapiens, five dose) was > 100 µM and the CC50 [2, 24] was > 100 µM. For the same molecule, the Growth percent [2] was 88.54%, the TGI ([2]; five dose) was >100 µM and the TGI ([3]; five dose) was 7.53 µM. It also gave a GI50 ([3]; Homo sapiens, five dose) of 1.75 µM, an LC50 ([3]; Homo sapiens, five dose) of 53.6 µM and a GI50 ([4]; Homo sapiens, five dose) of 1.84 µM. The LC50 (concentration giving 50% net cell kill) ([4]; Homo sapiens, five dose) was > 100 µM, the Growth percent [4] was 79.35% and the Growth percent [5] was 95.77%. The TGI ([5]; five dose) was >100 µM, the GI50 ([5]; Homo sapiens, five dose) was > 100 µM and the LC50 ([5]; Homo sapiens, five dose) was > 100 µM. For the same molecule, the GI50 ([6]; Homo sapiens, five dose) was 13.8 µM, the CC50 [6, 24] was > 100 µM and the Growth percent [6] was 73.68%. The TGI ([6]; five dose) was >100 µM, the GI50 ([7]; Homo sapiens, five dose) was 3.5 µM and the LC50 ([7]; Homo sapiens, five dose) was > 100 µM. It also gave a Growth percent [7] of 74.33%, a TGI ([7]; five dose) of 16.50 µM and a GI50 ([8]; Homo sapiens, five dose) of 4.49 µM. The LC50 ([8]; Homo sapiens, five dose) was > 100 µM, the Growth percent [8] was 80.59% and the TGI ([8]; five dose) was 46.40 µM. The GI50 ([9]; Homo sapiens, U-251, five dose) was 4.41 µM, the LC50 ([9]; Homo sapiens, U-251, five dose) was > 100 µM and the TGI ([9]; five dose) was 25.10 µM. For the same molecule, the GI50 ([10]; Homo sapiens, five dose) was > 100 µM, the LC50 ([10]; Homo sapiens, five dose) was > 100 µM and the Growth percent [10] was 77.59%. The TGI ([10]; five dose) was >100 µM, the GI50 ([11]; Homo sapiens, five dose) was 10.6 µM and the LC50 ([11]; Homo sapiens, five dose) was 96.5 µM. For the same molecule, the TGI ([11]; five dose) was 31.90 µM, the LC50 ([12]; Homo sapiens, five dose) was > 100 µM and the Growth percent [12] was 84.20%. For the same molecule, the TGI ([12]; five dose) was >100 µM, the GI50 [13] was > 100 µM and the CC50 [13] was > 100 µM. The Growth percent [13] was 83.24%, the TGI [13] was >100 µM and the GI50 [14, 25] was 4.64 µM. The CC50 ([14]; Homo sapiens, IGROV-1, five dose, read-out: LC50 (the source's name)) was > 100 µM, the Growth percent [14] was 53.42% and the TGI ([14]; five dose) was >100 µM. The Growth percent ([15]; 10^−5 molar) was 76.59%, the GI50 [16] was 15 µM and the Growth percent [16] was 27.24%. It also gave a TGI [16] of 3.74 µM, a Growth percent [17] of 72.48% and a TGI ([17]; five dose) of 48.70 µM. For the same molecule, the GI50 ([17]; Homo sapiens, five dose) was 9.55 µM, the CC50 [17, 24] was > 100 µM and the Growth percent [18] was 86.46%. For the same molecule, the TGI [18] was 39.20 µM, the GI50 [18] was 8.05 µM and the CC50 [18] was > 100 µM. For the same molecule, the Growth percent ([19]; 10^−5 molar) was 80.38%, the TGI [19] was >100 µM and the GI50 [19] was 6.07 µM. For the same molecule, the CC50 [19] was > 100 µM, the Growth percent [20] was 34.73% and the TGI [20] was 21.20 µM. The GI50 [20] was 2.94 µM, the CC50 [20] was > 100 µM and the GI50 [21] was 0.03 µM. The CC50 [21] was 63.1 µM, the Growth percent [21] was −9.83% and the TGI [21] was 0.66 µM. The IC50 [22] was ~25 µM.

`O=c1c2cc(Cl)ccc2sc2c(NCCCNCCO)nc3ccccc3c12` [Compound N19, 10-Chloro-6-((3-((2-hydroxyethyl)amino)propyl)amino)-12H-thiochromeno[2,3-c]quinolin-12-one] was tested, and the IC50 ([23]; five different concentrations, TopoGEN TG2005H, TG-2000H-1, read-out: IC50 value, TOP II mediated supercoiled DNA relaxation) was ~1 µM, the “inhibitory effect in TOP II relaxation assay compared with VP-16” value ([23]; primary assay at 25 and/or 50 μM) was “more potent inhibitory effects than the positive agent VP-16” and the GI50 ([2]; Homo sapiens, five dose) was 1.84 µM. The Growth percent [2] was 5.53%, the TGI ([2]; five dose) was 4.21 µM and the Growth percent ([3]; 10^−5 molar) was 23.01%. For the same molecule, the TGI ([3]; five dose) was 4.58 µM, the GI50 ([3]; Homo sapiens, five dose) was 1.23 µM and the GI50 ([4]; Homo sapiens, five dose) was 1.9 µM. It also gave a Growth percent [4] of 86.75%, a TGI ([4]; five dose) of 4.46 µM and a Growth percent [5] of −74.47%. For the same molecule, the TGI ([5]; five dose) was 3.42 µM, the GI50 ([5]; Homo sapiens, five dose) was 1.58 µM and the GI50 ([6]; Homo sapiens, five dose) was 1.67 µM. It also gave a Growth percent [6] of 17.28%, a TGI ([6]; five dose) of 3.35 µM and a GI50 ([7]; Homo sapiens, five dose) of 1.73 µM. The Growth percent [7] was −93.00%, the TGI ([7]; five dose) was 3.33 µM and the GI50 ([8]; Homo sapiens, five dose) was 1.7 µM. For the same molecule, the Growth percent [8] was −47.59%, the TGI ([8]; five dose) was 3.22 µM and the GI50 ([9]; Homo sapiens, U-251, five dose) was 1.73 µM. The Growth percent ([9]; 10^−5 molar) was −66.76%, the TGI ([9]; five dose) was 3.22 µM and the GI50 ([10]; Homo sapiens, five dose) was 2.15 µM. The Growth percent [10] was −34.30%, the TGI ([10]; five dose) was 4.33 µM and the GI50 ([11]; Homo sapiens, five dose) was 2.05 µM. It also gave a Growth percent ([11]; 10^−5 molar) of 53.64%, a TGI ([11]; five dose) of 3.77 µM and a GI50 ([12]; Homo sapiens, five dose) of 1.89 µM. It also gave a Growth percent [12] of −94.33%, a TGI ([12]; five dose) of 3.56 µM and a GI50 [13] of 1.86 µM. The CC50 [13] was 6.33 µM, the Growth percent [13] was 45.70% and the TGI [13] was 3.44 µM. It also gave a GI50 [14, 25] of 1.66 µM, a Growth percent [14] of −43.25% and a TGI ([14]; five dose) of 3.60 µM. It also gave a GI50 ([15]; Homo sapiens, five dose) of 1.79 µM, a TGI ([15]; five dose) of 3.51 µM and a GI50 [16] of 1.6 µM. The Growth percent [16] was 12.32%, the TGI [16] was 3.23 µM and the Growth percent [17] was −17.60%. For the same molecule, the TGI ([17]; five dose) was 3.37 µM, the GI50 ([17]; Homo sapiens, five dose) was 1.72 µM and the Growth percent [18] was 61.88%. The TGI [18] was 3.62 µM, the GI50 [18] was 1.27 µM and the CC50 [18] was 15 µM. The TGI [19] was 2.69 µM, the GI50 [19] was 1.33 µM and the CC50 [19] was 5.45 µM. It also gave a Growth percent [20] of 64.69%, a TGI [20] of 3.53 µM and a GI50 [20] of 1.29 µM. For the same molecule, the CC50 [20] was 9.64 µM, the GI50 [21] was 1.06 µM and the CC50 [21] was 6.2 µM. For the same molecule, the Growth percent [21] was −24.00%, the TGI [21] was 2.56 µM and the IC50 [22] was ~5 µM.
